According to ChEMBL document CHEMBL1201862, “PubChem BioAssay data set” (2004):
Activity calls are given as the source filed them.

Assays:
[1] = biological target: Voltage-gated inwardly rectifying potassium channel KCNH2 (Homo sapiens, UniProt Q12809); conditions: Potency;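 also: confirmatory quantitative high-throughput screen measuring inhibition of hERG channel activity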
[2] = biological target: Dual specificity protein phosphatase 3 (Homo sapiens, UniProt P51452); experiment: SAR VHR1 Fluorescent Assay for In Vitro dose response studies Set 2. [Related pubchem assays (depositor defined):AID1654, AID1661, AID1878]; format: functional
Dual specificity protein phosphatase 3, sequence (P51452 whole entry): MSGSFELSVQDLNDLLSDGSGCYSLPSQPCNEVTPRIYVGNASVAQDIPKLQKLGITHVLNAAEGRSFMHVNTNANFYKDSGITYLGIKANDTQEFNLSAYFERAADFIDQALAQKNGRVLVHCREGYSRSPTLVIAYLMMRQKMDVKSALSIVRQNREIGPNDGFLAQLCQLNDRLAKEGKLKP

[3] = biological target: Tyrosine-protein phosphatase non-receptor type 12 (Homo sapiens, UniProt Q05209); experiment: SAR Selectivity Analysis of small molecule inhibitors of PEST using pCAP in a fluorescence assay. [Related pubchem assays (depositor defined):AID1779, AID1784, AID2135]; format: functional
Tyrosine-protein phosphatase non-receptor type 12, sequence (Q05209 whole entry): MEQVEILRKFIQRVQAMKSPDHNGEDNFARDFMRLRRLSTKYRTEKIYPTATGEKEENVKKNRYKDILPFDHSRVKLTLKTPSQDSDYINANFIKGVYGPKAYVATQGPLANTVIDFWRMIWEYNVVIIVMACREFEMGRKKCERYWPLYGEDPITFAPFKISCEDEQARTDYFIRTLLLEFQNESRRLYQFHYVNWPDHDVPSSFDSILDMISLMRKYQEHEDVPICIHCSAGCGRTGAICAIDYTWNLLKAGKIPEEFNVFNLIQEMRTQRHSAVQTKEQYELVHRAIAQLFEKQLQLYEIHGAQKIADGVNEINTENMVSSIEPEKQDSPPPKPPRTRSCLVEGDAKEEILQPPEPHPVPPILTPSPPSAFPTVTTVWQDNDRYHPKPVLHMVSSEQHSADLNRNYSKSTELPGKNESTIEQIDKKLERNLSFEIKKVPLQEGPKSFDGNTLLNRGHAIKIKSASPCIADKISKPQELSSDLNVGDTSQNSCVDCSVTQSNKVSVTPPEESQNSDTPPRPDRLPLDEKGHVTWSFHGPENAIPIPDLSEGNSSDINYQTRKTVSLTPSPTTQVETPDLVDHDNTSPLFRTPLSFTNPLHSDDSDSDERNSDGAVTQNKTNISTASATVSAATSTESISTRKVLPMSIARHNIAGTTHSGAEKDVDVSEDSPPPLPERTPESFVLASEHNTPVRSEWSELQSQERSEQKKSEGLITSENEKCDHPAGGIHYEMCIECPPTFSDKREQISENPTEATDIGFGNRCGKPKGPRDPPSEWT

[4] = biological target: T1, Tyrosine-protein phosphatase non-receptor type 7 (Homo sapiens, UniProt P35236); experiment: inhibition of hematopoietic tyrosine phosphatase HePTP – biochemical, set 2, SAR follow-up (AID 449736); format: functional
T1 sequence (P35236 whole entry): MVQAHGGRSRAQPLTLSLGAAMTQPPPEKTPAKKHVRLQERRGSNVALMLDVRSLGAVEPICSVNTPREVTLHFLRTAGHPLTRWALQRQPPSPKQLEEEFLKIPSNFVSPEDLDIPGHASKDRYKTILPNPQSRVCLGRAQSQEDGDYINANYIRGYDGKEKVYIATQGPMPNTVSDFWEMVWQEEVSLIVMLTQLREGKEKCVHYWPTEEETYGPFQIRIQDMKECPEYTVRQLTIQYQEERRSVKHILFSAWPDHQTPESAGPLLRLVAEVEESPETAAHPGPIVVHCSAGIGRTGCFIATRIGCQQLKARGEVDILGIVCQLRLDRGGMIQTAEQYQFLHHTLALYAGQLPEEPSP

[5] = biological target: T1, Tyrosine-protein phosphatase non-receptor type 7; experiment: redox-active compounds inhibiting HePTP phosphatase – biochemical, fluorescence, mechanism study (AID 2068); format: functional
[6] = biological target: T2, Tyrosine-protein phosphatase non-receptor type 22 (Homo sapiens, UniProt Q9Y2R2); experiment: SAR LYP1 Fluorescent Assay using OMFP substrate for In Vitro dose response studies - Set 3. [Related pubchem assays (depositor defined):AID1779, AID1784, AID2140, AID2686]; format: functional
T2 sequence (Q9Y2R2 whole entry): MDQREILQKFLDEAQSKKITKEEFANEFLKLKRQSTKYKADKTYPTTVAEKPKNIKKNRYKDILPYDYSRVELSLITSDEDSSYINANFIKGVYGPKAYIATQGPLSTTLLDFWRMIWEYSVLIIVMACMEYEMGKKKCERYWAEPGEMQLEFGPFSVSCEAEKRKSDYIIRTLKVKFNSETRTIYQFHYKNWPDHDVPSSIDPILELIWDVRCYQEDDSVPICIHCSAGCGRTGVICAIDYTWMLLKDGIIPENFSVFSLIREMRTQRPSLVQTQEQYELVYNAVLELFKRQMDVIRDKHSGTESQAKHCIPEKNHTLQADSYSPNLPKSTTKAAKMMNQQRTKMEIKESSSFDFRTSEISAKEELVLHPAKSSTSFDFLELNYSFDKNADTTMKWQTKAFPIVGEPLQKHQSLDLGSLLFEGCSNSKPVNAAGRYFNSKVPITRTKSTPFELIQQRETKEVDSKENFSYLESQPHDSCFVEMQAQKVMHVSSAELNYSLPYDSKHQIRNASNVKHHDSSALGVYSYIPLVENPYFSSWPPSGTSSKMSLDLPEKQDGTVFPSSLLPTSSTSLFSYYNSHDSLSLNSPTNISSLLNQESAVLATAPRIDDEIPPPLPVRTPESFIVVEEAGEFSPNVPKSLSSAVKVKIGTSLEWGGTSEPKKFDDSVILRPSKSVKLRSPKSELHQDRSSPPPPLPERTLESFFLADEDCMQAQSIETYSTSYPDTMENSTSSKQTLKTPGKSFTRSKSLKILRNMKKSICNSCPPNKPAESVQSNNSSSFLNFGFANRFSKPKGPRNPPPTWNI

[7] = biological target: T2, Tyrosine-protein phosphatase non-receptor type 22; experiment: inhibition of lymphoid tyrosine phosphatase LYP – biochemical, pCAP fluorogenic substrate, fluorescence, set 3, SAR follow-up (AID 449727); format: functional
[8] = biological target: T3, Dual specificity protein phosphatase 6 (Rattus norvegicus, UniProt Q64346); format: functional;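 also: confirmatory in vitro dose-response testing of MKP-3 inhibition; recombinant His-tagged MKP-3 made in E. coli BL21 with OMFP substrate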
T3 sequence (Q64346 whole entry): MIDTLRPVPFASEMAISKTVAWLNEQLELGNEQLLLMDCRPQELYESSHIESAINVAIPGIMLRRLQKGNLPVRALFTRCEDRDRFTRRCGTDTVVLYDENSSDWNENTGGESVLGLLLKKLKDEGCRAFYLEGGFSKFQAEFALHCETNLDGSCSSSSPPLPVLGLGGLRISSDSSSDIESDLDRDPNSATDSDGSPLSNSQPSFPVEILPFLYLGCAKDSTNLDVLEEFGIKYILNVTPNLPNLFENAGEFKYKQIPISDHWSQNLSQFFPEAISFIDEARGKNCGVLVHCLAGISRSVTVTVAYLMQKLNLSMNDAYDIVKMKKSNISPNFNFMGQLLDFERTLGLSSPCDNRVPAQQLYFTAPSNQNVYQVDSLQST

HeLa = experiment: ATP-based viability loss in HeLa cells – cell-based, CellTiter-Glo luminescence, cherry-pick samples, cytotoxicity control for MITF activator project, dose response (AID 540259); format: functional; conditions: Homo sapiens
[9] = Trypanosoma cruzi growth suppression in host cells – NIH3T3 host cells, beta-gal luminescence, confirmation (AID 2044); format: functional, cell-based;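 also: intracellular parasites grown in NIH/3T3 mouse fibroblasts as host cells; luminescent beta-galactosidase reporter signal from transgenic T. cruzi replicating inside host cells; inhibitors lower the luminescence signal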
[10] = NIH3T3 cell viability loss – ATP luminescence, mouse fibroblasts, counter-screen, dose response (AID 2010); format: functional, cell-based;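 also: cells exposed to compound for about 90 hours before reading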
[11] = HEK-293T viability loss, compound-treated – cell-based, uHTS hits, cytotoxicity control for B/T-cell NF-kB inhibitor project, dose response (AID 489019); format: functional;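 also: IC50 reflects cytotoxicity as loss of cell viability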
[12] = NIH-3T3 fibroblast cytotoxicity, dose response, cytotoxicity control, cell-based, fluorescence, Alamar Blue, secondary assay (AID 2327); format: functional;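 also: NIH-3T3 mouse fibroblasts cultured with fluconazole at 8 µg/mL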
[13] = fluconazole-exposed Candida albicans growth modulators – fluorescence, retest, confirmation (AID 2467); format: functional, cell-based
Jurkat = experiment: blockers of NF-kB activation in T cells – Jurkat, luciferase reporter, luminescence, B- and T-cell, dose response (AID 489004); format: functional, cell-based; conditions: Homo sapiens;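 also: NF-kB luciferase reporter Jurkat cells stimulated with PMA plus ionomycin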

Voltage-gated inwardly rectifying potassium channel KCNH2, sequence (Q12809 whole entry): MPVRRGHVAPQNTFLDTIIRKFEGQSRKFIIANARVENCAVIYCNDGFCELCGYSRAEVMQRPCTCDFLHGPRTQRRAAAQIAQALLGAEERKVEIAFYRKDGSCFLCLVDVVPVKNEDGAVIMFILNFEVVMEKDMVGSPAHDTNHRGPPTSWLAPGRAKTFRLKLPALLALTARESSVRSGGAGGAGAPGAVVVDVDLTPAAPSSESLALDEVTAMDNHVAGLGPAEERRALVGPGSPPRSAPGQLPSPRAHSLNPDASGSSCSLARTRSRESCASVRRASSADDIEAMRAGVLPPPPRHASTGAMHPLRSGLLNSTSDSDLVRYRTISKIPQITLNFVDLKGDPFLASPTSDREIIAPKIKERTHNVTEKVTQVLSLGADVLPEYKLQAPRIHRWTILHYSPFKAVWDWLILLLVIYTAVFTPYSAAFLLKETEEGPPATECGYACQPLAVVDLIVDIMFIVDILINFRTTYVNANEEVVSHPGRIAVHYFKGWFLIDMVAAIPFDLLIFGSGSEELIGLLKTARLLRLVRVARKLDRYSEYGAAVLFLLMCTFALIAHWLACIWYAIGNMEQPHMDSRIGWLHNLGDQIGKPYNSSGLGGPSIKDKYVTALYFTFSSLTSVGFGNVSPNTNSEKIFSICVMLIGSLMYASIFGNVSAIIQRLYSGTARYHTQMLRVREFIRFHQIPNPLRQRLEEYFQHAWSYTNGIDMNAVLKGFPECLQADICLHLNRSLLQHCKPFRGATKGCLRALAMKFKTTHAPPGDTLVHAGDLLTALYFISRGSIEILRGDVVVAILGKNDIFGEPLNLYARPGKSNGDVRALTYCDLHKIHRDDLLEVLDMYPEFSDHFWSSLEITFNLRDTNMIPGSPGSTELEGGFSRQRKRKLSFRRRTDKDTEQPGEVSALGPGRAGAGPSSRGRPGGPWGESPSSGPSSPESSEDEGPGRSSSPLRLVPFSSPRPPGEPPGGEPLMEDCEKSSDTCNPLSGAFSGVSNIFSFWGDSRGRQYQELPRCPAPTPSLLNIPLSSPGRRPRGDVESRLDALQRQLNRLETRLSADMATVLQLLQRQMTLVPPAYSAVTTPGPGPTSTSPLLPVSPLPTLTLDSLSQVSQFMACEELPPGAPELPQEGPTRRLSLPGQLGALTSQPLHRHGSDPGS

In the case of `NC(=S)NCCCC(N)C(=O)O` (stereo not given), the AC50 [1] is reported as 35.5 µM (inconclusive).

For `CCOc1cc(/C=C2/S/C(=N\c3ccccc3)NC2=O)cc(I)c1OCC(=O)O`, the IC50 [2] was 33.8 µM (active), the IC50 [3] was 7.6 µM (active) and the IC50 [4] was 2.33 µM (active). For the same compound, the IC50 [5] was 6.03 µM (active), the IC50 [6] was 56.6 µM (active) and the IC50 [7] was 30.2 µM (active). For the same compound, the IC50 [8] was > 100 µM (inactive).

For `CCn1c(C)nc2cc(C(=O)N/N=C(\C)c3ccccc3O)ccc21`, the AC50 (HeLa) was 126 µM (active).

For `CN(C)c1ccc(-c2n(C)c3ccccc3[n+]2C)cc1`, the EC50 [9] was 0.582 µM (active), the EC50 [10] was 18.1 µM (active) and the IC50 [11] was > 80 µM (inactive). The EC50 [12] was > 150 µM (inactive), the EC50 [13] was 2.18 µM (active) and the IC50 (Jurkat) was > 80 µM (inactive).
